Results from US9447084B2, “Antiparisitic and pesticidal isoxazoline compounds” (MERIAL LIMITED, priority 2013, dated 2016).
Each block holds one compound with its values, some of them ahead of it.

System: Ctenocephalides felis
Experiment: Efficacy of compounds against fleas following ingestion (membrane feeding on treated bovine blood)
Assay type: in vivo
Conditions: for EC50: 10 adult Ctenocephalides felis feeding on treated bovine blood, assessment at 72 hours after application vs untreated controls; for EC50 (ppm): efficacy against fleas, method of Example 19, compounds with vs without carbonyl group in Ring D
Procedure: A cylindrical test container was filled with 10 adult Ctenocephalides felis. A cylindrical well was closed on one end with a self-sealing flexible film and placed on top of the test container in such a position that the fleas could pierce the film and feed on the contents of the cylinder. The test compound solution was then pipetted into bovine blood and added to the well. The container part with the Ctenocephalides felis was held at 20-22° C. and 40-60% relative humidity while the well part containing the treated blood was held at 37° C. and 40-60% relative humidity. Assessment was performed at 72 hours after application in comparison with untreated controls. […] In this regard, the efficacy of the compounds of the invention having at least one carbonyl group in Ring D against fleas was compared with the efficacy of corresponding compounds that are not substituted with a carbonyl group in Ring D using the method of Example 19.

Compound: O=C1CN(C(=O)c2ccc(C3=NOC(c4cc(Cl)cc(C(F)(F)F)c4)(C(F)(F)F)C3)c3ccccc23)CN1CCC(F)(F)F (stereo not drawn) [Compound 112, 1-[(4-[5-[3-chloro-5-(trifluoromethyl)phenyl]-5-(trifluoromethyl)-4,5-dihydro-1,2-oxazol-3-yl]naphthalen-1-yl)carbonyl]-3-(3,3,3-trifluoropropyl)imidazolidin-4-one]
EC50: ≤ 0.1 µg/mL

EC50: ≤ 1 µg/mL
Compound: O=C(NN1CCCN(CC(F)(F)F)C1=O)c1ccc(C2=NOC(c3cc(C(F)(F)F)cc(C(F)(F)F)c3)(C(F)(F)F)C2)cc1C(F)(F)F (stereo not drawn) [Compound 90, 4-[5-[3,5-bis(trifluoromethyl)phenyl]-5-(trifluoromethyl)-4,5-dihydro-1,2-oxazol-3-yl]-N-[2-oxo-3-(2,2,2-trifluoroethyl)-1,3-diazinan-1-yl]-2-(trifluoromethyl)benzamide]

Compound: O=C1CN(C(=O)c2ccc(C3=NOC(c4cc(Cl)cc(C(F)(F)F)c4)(C(F)(F)F)C3)cc2C(F)(F)F)CN1CC(F)(F)F (stereo not drawn) [Compound 96, 1-[(4-[5-[3-chloro-5-(trifluoromethyl)phenyl]-5-(trifluoromethyl)-4,5-dihydro-1,2-oxazol-3-yl]-2-(trifluoromethyl)phenyl)carbonyl]-3-(2,2,2-trifluoroethyl)imidazolidin-4-one]
EC50: ≤ 1 µg/mL

Compound: Cc1cc(C2=NOC(c3cc(Cl)cc(C(F)(F)F)c3)(C(F)(F)F)C2)ccc1C(=O)N1CCN(CCC(F)(F)F)C1 (stereo not drawn) [drawing 156, reference compound]
EC50 (ppm): 1-10 ppm

Compound: O=C(NN1CCCN(CC(F)(F)F)C1=O)c1ccc(C2=NOC(c3cc(Cl)cc(C(F)(F)F)c3)(C(F)(F)F)C2)cc1C(F)(F)F (stereo not drawn) [Compound 97, 4-[5-[3-chloro-5-(trifluoromethyl)phenyl]-5-(trifluoromethyl)-4,5-dihydro-1,2-oxazol-3-yl]-N-[2-oxo-3-(2,2,2-trifluoroethyl)-1,3-diazinan-1-yl]-2-(trifluoromethyl)benzamide]
EC50: ≤ 1 µg/mL

Compound: Cc1cc(C2=NOC(c3cc(Cl)cc(Cl)c3)(C(F)(F)F)C2)ccc1C(=O)N1CCNCC1 (stereo not drawn) [reference compound]
EC50 (ppm): 1-10 ppm

Compound: Cc1cc(C2=NOC(c3cc(Cl)cc(Cl)c3)(C(F)(F)F)C2)ccc1C(=O)N1CCN(CC(F)(F)F)CC1 (stereo not drawn) [reference compound]
EC50 (ppm): 10-20 ppm

Compound: Cc1cc(C2=NOC(c3cc(Cl)cc(C(F)(F)F)c3)(C(F)(F)F)C2)ccc1C(=O)N1CC(=O)N(CC(F)(F)F)C1 (stereo not drawn) [Compound 71, 1-[(4-[5-[3-chloro-5-(trifluoromethyl)phenyl]-5-(trifluoromethyl)-4,5-dihydro-1,2-oxazol-3-yl]-2-methylphenyl)carbonyl]-3-(2,2,2-trifluoroethyl)imidazolidin-4-one]
EC50: ≤ 0.1 µg/mL

Compound: Cc1cc(C2=NOC(c3cc(Cl)cc(C(F)(F)F)c3)(C(F)(F)F)C2)ccc1C(=O)N1CC(=O)N(CCC(F)(F)F)C1 (stereo not drawn) [Compound 80, 1-[(4-[5-[3-chloro-5-(trifluoromethyl)phenyl]-5-(trifluoromethyl)-4,5-dihydro-1,2-oxazol-3-yl]-2-methylphenyl)carbonyl]-3-(3,3,3-trifluoropropyl)imidazolidin-4-one]
EC50: ≤ 0.1 µg/mL

Compound: Cc1cc(C2=NOC(c3cc(Cl)cc(Cl)c3)(C(F)(F)F)C2)ccc1C(=O)NN1CCN(CC(F)(F)F)C1=O (stereo not drawn) [Compound 67, 4-[5-(3,5-dichlorophenyl)-5-(trifluoromethyl)-4,5-dihydro-1,2-oxazol-3-yl]-2-methyl-N-[2-oxo-3-(2,2,2-trifluoroethyl)imidazolidin-1-yl]benzamide]
EC50: ≤ 1 µg/mL

Compound: Cc1cc(C2=NOC(c3cc(Cl)cc(Cl)c3)(C(F)(F)F)C2)ccc1C(=O)N1CC(=O)N(CC(F)(F)F)C(=O)C1 (stereo not drawn)
EC50 (ppm): <0.1 ppm

Compound: Cc1cc(C2=NOC(c3cc(Cl)cc(C(F)(F)F)c3)(C(F)(F)F)C2)ccc1C(=O)NN1CCCN(CC(F)(F)F)C1=O (stereo not drawn) [Compound 70]
EC50: ≤ 1 µg/mL

Compound: CCN1CCN(C(=O)c2ccc(C3=NOC(c4cc(Cl)cc(Cl)c4)(C(F)(F)F)C3)cc2C)C1=O (stereo not drawn) [Compound 54]
EC50: ≤ 10 µg/mL

Compound: Cc1cc(C2=NOC(c3cc(Cl)c(F)c(Cl)c3)(C(F)(F)F)C2)ccc1C(=O)N1CC(=O)N(CCC(F)(F)F)C1 (stereo not drawn) [Compound 115, 1-([4-[5-(3,5-dichloro-4-fluorophenyl)-5-(trifluoromethyl)-4,5-dihydro-1,2-oxazol-3-yl]-2-methylphenyl]carbonyl)-3-(3,3,3-trifluoropropyl)imidazolidin-4-one]
EC50: ≤ 0.1 µg/mL

Compound: O=C(c1ccc(C2=NOC(c3cc(Cl)cc(Cl)c3)(C(F)(F)F)C2)cc1C(F)(F)F)N1CC(=O)N(CC(F)(F)F)C(=O)C1 (stereo not drawn) [Compound 92, 4-([4-[5-(3,5-dichlorophenyl)-5-(trifluoromethyl)-4,5-dihydro-1,2-oxazol-3-yl]-2-(trifluoromethyl)phenyl]carbonyl)-1-(2,2,2-trifluoroethyl)piperazine-2,6-dione]
EC50: ≤ 10 µg/mL

Compound: Cc1cc(C2=NOC(c3cc(Cl)cc(C(F)(F)F)c3)(C(F)(F)F)C2)ccc1C(=O)N1CC(=O)N(CS(C)(=O)=O)C1 (stereo not drawn) [Compound 114, 1-[(4-[5-[3-Chloro-5-(trifluoromethyl)phenyl]-5-(trifluoromethyl)-4,5-dihydro-1,2-oxazol-3-yl]-2-methylphenyl)carbonyl]-3-(methanesulfonylmethyl)imidazolidin-4-one]
EC50: ≤ 10 µg/mL

Compound: Cc1cc(C2=NOC(c3cc(Cl)cc(Cl)c3)(C(F)(F)F)C2)ccc1C(=O)N1CC(=O)NC(=O)C1 (stereo not drawn)
EC50 (ppm): <0.1 ppm

Compound: Cc1cc(C2=NOC(c3cc(Cl)cc(C(F)(F)F)c3)(C(F)(F)F)C2)ccc1C(=O)N1CCN(CCC(F)(F)F)C1 (stereo not drawn) [Compound 100]
EC50: ≤ 10 µg/mL

Compound: O=C1CN(C(=O)c2ccc(C3=NOC(c4cc(Cl)cc(Cl)c4)(C(F)(F)F)C3)cc2C(F)(F)F)CN1CC(F)(F)F (stereo not drawn) [Compound 93, 1-([4-[5-(3,5-dichlorophenyl)-5-(trifluoromethyl)-4,5-dihydro-1,2-oxazol-3-yl]-2-(trifluoromethyl)phenyl]carbonyl)-3-(2,2,2-trifluoroethyl)imidazolidin-4-one]
EC50: ≤ 1 µg/mL

Compound: O=C1CN(C(=O)c2ccc(C3=NOC(c4cc(Cl)cc(C(F)(F)F)c4)(C(F)(F)F)C3)cc2CC(F)(F)F)CN1CCC(F)(F)F (stereo not drawn) [Compound 99, 1-[(4-[5-[3-chloro-5-(trifluoromethyl)phenyl]-5-(trifluoromethyl)-4,5-dihydro-1,2-oxazol-3-yl]-2-(2,2,2-trifluoroethyl)phenyl)carbonyl]-3-(3,3,3-trifluoropropyl)imidazolidin-4-one]
EC50: ≤ 1 µg/mL

Compound: CCCN1C(=O)CN(C(=O)c2ccc(C3=NOC(c4cc(Cl)cc(C(F)(F)F)c4)(C(F)(F)F)C3)cc2C(F)(F)F)CC1=O (stereo not drawn) [Compound 95, 4-[(4-[5-[3-chloro-5-(trifluoromethyl)phenyl]-5-(trifluoromethyl)-4,5-dihydro-1,2-oxazol-3-yl]-2-(trifluoromethyl)phenyl)carbonyl]-1-propylpiperazine-2,6-dione]
EC50: ≤ 10 µg/mL

Compound: O=C1CN(C(=O)c2ccc(C3=NOC(c4cc(Cl)cc(C(F)(F)F)c4)(C(F)(F)F)C3)cc2C(F)(F)F)CN1CCC(F)(F)F (stereo not drawn) [Compound 98, 1-[(4-[5-[3-chloro-5-(trifluoromethyl)phenyl]-5-(trifluoromethyl)-4,5-dihydro-1,2-oxazol-3-yl]-2-(trifluoromethyl)phenyl)carbonyl]-3-(3,3,3-trifluoropropyl)imidazolidin-4-one]
EC50: ≤ 1 µg/mL

Compound: O=C(NN1CCCN(CC(F)(F)F)C1=O)c1ccc(C2=NOC(c3cc(Cl)cc(Cl)c3)(C(F)(F)F)C2)cc1C(F)(F)F (stereo not drawn) [Compound 91, 4-[5-(3,5-dichlorophenyl)-5-(trifluoromethyl)-4,5-dihydro-1,2-oxazol-3-yl]-N-[2-oxo-3-(2,2,2-trifluoroethyl)-1,3-diazinan-1-yl]-2-(trifluoromethyl)benzamide]
EC50: ≤ 1 µg/mL

Compound: Cc1cc(C2=NOC(c3cc(Cl)cc(C(F)(F)F)c3)(C(F)(F)F)C2)ccc1C(=O)N1CC(=O)N(CCC(F)(F)F)C1 (stereo not drawn) [drawing 155]
EC50 (ppm): <0.1 ppm
